The numbers were not newly measured in publication doi:10.1101/2023.04.03.535218, “Distributable, Metabolic PET Reporting of Tuberculosis” (bioRxiv, 2023), which cites them from elsewhere.

Molecules are shown by their SMILES.

The series has as its target T1, OtsA^Sf (Escherichia coli, UniProt P31677).
T1 construct: C-terminally tagged, purified on Ni-NTA
T1 sequence (P31677 2-474): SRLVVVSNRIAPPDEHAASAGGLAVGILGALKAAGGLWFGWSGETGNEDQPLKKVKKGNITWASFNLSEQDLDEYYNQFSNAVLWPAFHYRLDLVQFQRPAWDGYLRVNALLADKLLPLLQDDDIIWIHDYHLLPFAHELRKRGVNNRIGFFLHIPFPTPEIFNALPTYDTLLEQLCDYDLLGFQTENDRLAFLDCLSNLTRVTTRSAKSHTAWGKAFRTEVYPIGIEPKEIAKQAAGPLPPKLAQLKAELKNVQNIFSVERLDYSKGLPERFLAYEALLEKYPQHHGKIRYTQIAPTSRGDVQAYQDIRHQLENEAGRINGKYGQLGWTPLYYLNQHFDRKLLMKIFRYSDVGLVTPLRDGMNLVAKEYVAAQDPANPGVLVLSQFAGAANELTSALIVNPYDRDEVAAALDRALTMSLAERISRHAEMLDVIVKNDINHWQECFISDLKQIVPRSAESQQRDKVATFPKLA
Briefly: NADH-linked continuous assay (Methods). The settings on record: co-substrate UDP-Glc; table note a (taken from Reference 41) is also set on this row, text presents it as own. In kind it is biochemical.

Turning to `O=P(O)(O)OC[C@H]1OC(O)[C@H](O)[C@@H](O)[C@@H]1O` (stereo partly shown) [G6P], the Km (commonly the substrate concentration at which the rate is half of its maximum) is 4.9 ± 0.5 mM.
